Assay results published in ChEMBL document CHEMBL1201862, “PubChem BioAssay data set” (2004).
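96-well plates; 48 h exposure; 5 concentrations. Endpoints by linear interpolation between flanking doses. Not reached: highest tested concentration assigned. GI50: concentration for 50% inhibition of growth.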 Calls of active or inactive are those of the source. Cut-off read from the data, not from the text of the source: active = GI50 up to about 1.1 µM and inactive = higher.

Assays:
Test in all cases: NCI tumour cell line growth inhibition, 48 h
ACHN = tested on: ACHN
BT-549 = tested on: BT-549
COLO 205 = tested on: COLO 205
DU-145 = tested on: DU-145
HOP-62 = tested on: HOP-62
LOX IMVI = tested on: LOX IMVI
M14 = tested on: M14
MDA-MB-231 = tested on: MDA-MB-231
MDA-N = tested on: MDA-N
NCI-H226 = tested on: NCI-H226
NCI-H23 = tested on: NCI-H23
NCI-H522 = tested on: NCI-H522
SF-295 = tested on: SF-295
SF-539 = tested on: SF-539
SK-MEL-28 = tested on: SK-MEL-28
SK-MEL-5 = tested on: SK-MEL-5
SNB-19 = tested on: SNB-19
TK-10 = tested on: TK-10
U-251 = tested on: U-251
UO-31 = tested on: UO-31

Measured: GI50

Cn1c2ccccc2c2c3c(c4c5ccccc5n(C)c4c21)C(=O)N(Cc1ccccc1)C3=O
inactive: ACHN > 100 µM | BT-549 > 100 µM | COLO 205 > 100 µM | DU-145 > 100 µM | HOP-62 19.3 µM | LOX IMVI > 100 µM | M14 > 100 µM | MDA-MB-231 > 100 µM | MDA-N > 100 µM | NCI-H226 > 100 µM | NCI-H23 > 100 µM | NCI-H522 > 100 µM | SF-295 > 100 µM | SF-539 > 100 µM | SK-MEL-28 > 100 µM | SK-MEL-5 77.4 µM | SNB-19 > 100 µM | TK-10 > 100 µM | U-251 > 100 µM | UO-31 > 100 µM

COc1ccc(C(=O)C(Br)C(Br)C(=O)O)cc1 (stereo not given)
inactive: ACHN 44.2 µM | BT-549 26.5 µM | COLO 205 21.9 µM | DU-145 80.2 µM | HOP-62 36.6 µM | LOX IMVI 21 µM | M14 54.1 µM | MDA-MB-231 > 100 µM | MDA-N 38.1 µM | NCI-H226 > 100 µM | NCI-H23 39.4 µM | NCI-H522 16.7 µM | SF-295 > 100 µM | SF-539 21.4 µM | SK-MEL-28 40.4 µM | SK-MEL-5 > 100 µM | SNB-19 83.8 µM | TK-10 90.2 µM | U-251 35.3 µM

COC(=O)C1OC(O[C@H]2CC[C@]3(C)[C@H]4CC=C5[C@@H]6CC(C)(C)CC[C@]6(C(=O)OC6OCC(O)C(O)C6OC6OC(C)C(OC7OCC(O)C(O)C7O)C(OC7OCC(O)(CO)C7O)C6O)[C@H](O)C[C@@]5(C)[C@]4(C)CC[C@H]3C2(C)C)C(O)C(O)C1O (stereo not given in full)
inactive: ACHN 3.31 µM | BT-549 2.64 µM | COLO 205 1.57 µM | DU-145 8.53 µM | HOP-62 3.13 µM | LOX IMVI 7.64 µM | M14 2.82 µM | MDA-MB-231 2.32 µM | MDA-N 2.01 µM | NCI-H226 4.23 µM | NCI-H23 1.8 µM | NCI-H522 2.14 µM | SF-295 4.43 µM | SF-539 31.6 µM | SK-MEL-28 2.2 µM | SK-MEL-5 4.65 µM | SNB-19 5.57 µM | TK-10 15.9 µM | U-251 6.5 µM | UO-31 1.81 µM

C=CCNC(=O)N1CC(C)C(=O)Nc2ccccc21 (stereo not given)
inactive: ACHN > 100 µM | BT-549 > 100 µM | COLO 205 > 100 µM | DU-145 > 100 µM | HOP-62 > 100 µM | LOX IMVI > 100 µM | M14 > 100 µM | MDA-MB-231 > 100 µM | MDA-N > 100 µM | NCI-H226 > 100 µM | NCI-H23 > 100 µM | NCI-H522 > 100 µM | SF-295 > 100 µM | SF-539 > 100 µM | SK-MEL-28 > 100 µM | SK-MEL-5 > 100 µM | SNB-19 > 100 µM | TK-10 > 100 µM | U-251 > 100 µM | UO-31 > 100 µM

Cn1cco/c1=N/c1ccc(Cl)c(Cl)c1
inactive: ACHN > 10 µM | BT-549 > 10 µM | COLO 205 > 10 µM | DU-145 > 10 µM | HOP-62 > 10 µM | LOX IMVI > 10 µM | M14 > 10 µM | MDA-MB-231 > 10 µM | MDA-N > 10 µM | NCI-H226 > 10 µM | NCI-H23 > 10 µM | NCI-H522 > 10 µM | SF-295 > 10 µM | SF-539 > 10 µM | SK-MEL-28 > 10 µM | SK-MEL-5 > 10 µM | SNB-19 > 10 µM | TK-10 > 10 µM | U-251 > 10 µM | UO-31 > 10 µM

Cc1cc(C)n(-c2nc(-n3nc(C)cc3C)nc(-n3nc(C)cc3C)n2)n1
inactive: ACHN 38.6 µM | BT-549 > 100 µM | COLO 205 > 100 µM | DU-145 > 100 µM | HOP-62 > 100 µM | LOX IMVI > 100 µM | M14 > 100 µM | MDA-MB-231 > 100 µM | MDA-N > 100 µM | NCI-H226 35.8 µM | NCI-H23 88.7 µM | NCI-H522 > 100 µM | SF-295 > 100 µM | SF-539 > 100 µM | SK-MEL-28 > 100 µM | SK-MEL-5 > 100 µM | SNB-19 > 100 µM | TK-10 30.1 µM | U-251 > 10 µM | UO-31 43.3 µM

COC1=CC(=O)c2c(c(-c3csc(C)n3)cn2C)C1=O
inactive: ACHN 25.8 µM | BT-549 22.8 µM | COLO 205 19.8 µM | DU-145 4.85 µM | HOP-62 30 µM | LOX IMVI 4.81 µM | M14 5.58 µM | MDA-MB-231 29.4 µM | MDA-N 14.8 µM | NCI-H226 33.6 µM | NCI-H23 2.56 µM | NCI-H522 18.5 µM | SF-295 6.75 µM | SF-539 17.9 µM | SK-MEL-28 44.5 µM | SK-MEL-5 1.72 µM | SNB-19 8.04 µM | TK-10 29.9 µM | U-251 69.7 µM | UO-31 27 µM

CN1CCC(n2[nH]c(-c3ccccc3)c(Cc3ccccc3)c2=O)CC1 [BENZPIPERYLON]
inactive: ACHN > 100 µM | BT-549 > 100 µM | COLO 205 > 100 µM | DU-145 97.3 µM | HOP-62 > 100 µM | LOX IMVI > 100 µM | M14 > 100 µM | MDA-MB-231 > 100 µM | MDA-N > 100 µM | NCI-H226 > 100 µM | NCI-H23 > 100 µM | NCI-H522 > 100 µM | SF-295 > 100 µM | SF-539 57.1 µM | SK-MEL-28 > 100 µM | SK-MEL-5 > 100 µM | SNB-19 > 100 µM | TK-10 > 100 µM | U-251 > 100 µM | UO-31 88.9 µM

Cc1cc(S(=O)(=O)N/C(=N/N)NCCc2ccccc2)c(S)cc1Cl
inactive: BT-549 15.4 µM | COLO 205 49.3 µM | DU-145 18.5 µM | HOP-62 > 10 µM | LOX IMVI 29.6 µM | M14 24.1 µM | MDA-MB-231 29.6 µM | MDA-N > 10 µM | NCI-H226 25.6 µM | NCI-H522 29.6 µM | SF-539 24 µM | SK-MEL-28 20.7 µM | SK-MEL-5 19.2 µM | SNB-19 18.1 µM | TK-10 39.4 µM | U-251 16.6 µM | UO-31 27.6 µM

CCCCc1c(O)nc(Nc2nc3ccccc3[nH]2)[nH]c1=O
inactive: ACHN > 100 µM | BT-549 > 100 µM | COLO 205 > 100 µM | DU-145 > 100 µM | HOP-62 > 100 µM | LOX IMVI > 100 µM | M14 > 100 µM | MDA-MB-231 > 100 µM | MDA-N > 100 µM | NCI-H226 67 µM | NCI-H23 > 100 µM | NCI-H522 57 µM | SF-295 > 100 µM | SF-539 > 100 µM | SK-MEL-28 > 100 µM | SK-MEL-5 > 100 µM | SNB-19 > 100 µM | TK-10 > 100 µM | U-251 69.7 µM
